According to US20250171423A1, “PHARMACEUTICAL COMPOUNDS FOR THE TREATMENT OF COMPLEMENT MEDIATED DISORDERS” (Achillion Pharmaceuticals, Inc., priority 2020, published 2025):

target: T1, Human complement C1s enzyme (Homo sapiens, UniProt P09871); assay: Human C1s Enzyme Assay; assay type: biochemical; settings: human C1s 1.16 nM, 5 min preincubation, substrate Z-L-Lys-SBzl 100 μM, A405; read-out: C1s Protease Activity
T1 construct: purified from human serum, Complement Technology, Inc; purchased Complement Technology, Inc; host or cells: human serum
T1 sequence (P09871 438-688 limits assumed): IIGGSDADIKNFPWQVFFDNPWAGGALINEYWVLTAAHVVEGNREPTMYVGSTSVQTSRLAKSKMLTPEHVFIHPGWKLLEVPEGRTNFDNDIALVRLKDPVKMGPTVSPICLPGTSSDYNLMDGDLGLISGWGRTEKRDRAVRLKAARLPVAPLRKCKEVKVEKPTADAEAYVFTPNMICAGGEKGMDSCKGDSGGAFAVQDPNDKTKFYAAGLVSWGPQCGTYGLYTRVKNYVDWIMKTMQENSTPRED
T1 sequence (P09871 16-437 partner limits assumed): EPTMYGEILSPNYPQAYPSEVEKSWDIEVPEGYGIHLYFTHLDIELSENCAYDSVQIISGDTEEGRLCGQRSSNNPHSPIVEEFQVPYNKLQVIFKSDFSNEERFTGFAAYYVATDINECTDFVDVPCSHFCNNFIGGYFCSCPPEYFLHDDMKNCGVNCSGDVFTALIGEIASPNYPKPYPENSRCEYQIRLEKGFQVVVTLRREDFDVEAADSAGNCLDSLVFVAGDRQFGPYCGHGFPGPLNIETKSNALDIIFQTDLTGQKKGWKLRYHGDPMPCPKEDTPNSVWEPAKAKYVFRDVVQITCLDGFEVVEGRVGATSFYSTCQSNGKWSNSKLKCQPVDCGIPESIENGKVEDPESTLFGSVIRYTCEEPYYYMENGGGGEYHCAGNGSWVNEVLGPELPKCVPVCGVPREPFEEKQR
Outline: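 IC50 values were fitted by nonlinear regression to rates measured as A405 every 30 s for 30 min. The thioester substrate Z-L-Lys-SBzl and Ellman's reagent were each at 100 μM. Serum-derived C1s at 1.16 nM final had 5 min of room-temperature preincubation with compound (pH 7.5 Tris buffer, 1 M NaCl).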

Row | SMILES | IC50
1 | CN/C(=N/C#N)c1csc(CNC(=O)[C@@H]2C[C@]3(C)C[C@@H]3N2C(=O)CNC(=O)c2ccc(Oc3ccccc3)cc2)c1 [Compound 236, (1S,3S,5S)-N-((4-((E)-N′-cyano-N-methylcarbamimidoyl)thiophen-2-yl)methyl)-5-methyl-2-((4-phenoxybenzoyl)glycyl)-2-azabicyclo[3.1.0]hexane-3-carboxamide] | > 1 µM
2 | C[C@@]12C[C@@H]1N(C(=O)CNC(=O)c1ccc(Oc3ccccc3)cc1)[C@H](C(=O)Nc1ccc3c(C(=N)N)csc3c1)C2 [Compound 237, (1S,3S,5S)-N-(3-carbamimidoylbenzo[b]thiophen-6-yl)-5-methyl-2-((4-phenoxybenzoyl)glycyl)-2-azabicyclo[3.1.0]hexane-3-carboxamide] | 0.1 to 1 µM
3 | Cc1ccccc1[C@H]1C[C@@H](C(=O)N[C@H](C)c2cc(C(=N)N)cs2)N(C(=O)CNC(=O)c2ccc(Oc3ccccc3)cc2)C1 [Compound 238, (2S,4R)-N-((R)-1-(4-carbamimidoylthiophen-2-yl)ethyl)-1-((4-phenoxybenzoyl)glycyl)-4-(o-tolyl)pyrrolidine-2-carboxamide] | < 0.1 µM
4 | C[C@@]12C[C@@H]1N(C(=O)CNC(=O)c1ccc(Oc3ccccc3)cc1)[C@H](C(=O)NCc1cc(C(=N)N)c(F)s1)C2 [Compound 239, (1S,3S,5S)-N-((4-carbamimidoyl-5-fluorothiophen-2-yl)methyl)-5-methyl-2-((4-phenoxybenzoyl)glycyl)-2-azabicyclo[3.1.0]hexane-3-carboxamide] | < 0.1 µM
5 | C[C@@H](NC(=O)[C@@H]1C[C@]2(C)C[C@@H]2N1C(=O)CNC(=O)c1ccc(Oc2ccccc2)cc1)c1cc(-c2ncc[nH]2)cs1 [Compound 240, (1S,3S,5S)-N-((R)-1-(4-(1H-imidazol-2-yl)thiophen-2-yl)ethyl)-5-methyl-2-((4-phenoxybenzoyl)glycyl)-2-azabicyclo[3.1.0]hexane-3-carboxamide] | < 0.1 µM
6 | C[C@@H](NC(=O)[C@@H]1C[C@H](C2CCCCC2)CN1C(=O)CNC(=O)c1ccc(Oc2ccccc2)cc1)c1cc(C(=N)N)cs1 [Compound 241, (2S,4R)-N-((R)-1-(4-carbamimidoylthiophen-2-yl)ethyl)-4-cyclohexyl-1-((4-phenoxybenzoyl)glycyl)pyrrolidine-2-carboxamide] | < 0.1 µM
7 | N=C(N)c1csc(CNC(=O)[C@@H]2C[C@H](C3CCCCC3)CN2C(=O)CNC(=O)CCCOc2ccccc2)c1 [Compound 242, (2S,4R)-N-((4-carbamimidoylthiophen-2-yl)methyl)-4-cyclohexyl-1-((4-phenoxybutanoyl)glycyl)pyrrolidine-2-carboxamide] | < 0.1 µM
8 | C[C@@H](NC(=O)[C@@H]1C[C@H](C2CCCCC2)CN1C(=O)CNC(=O)CCCOc1ccccc1)c1cc(C(=N)N)cs1 [Compound 243, (2S,4R)-N-((R)-1-(4-carbamimidoylthiophen-2-yl)ethyl)-4-cyclohexyl-1-((4-phenoxybutanoyl)glycyl)pyrrolidine-2-carboxamide] | < 0.1 µM
9 | N=C(N)c1csc(CNC(=O)[C@@H]2C[C@H](OC(F)(F)F)CN2C(=O)CNC(=O)c2ccc(Oc3ccccc3)cc2)c1 [Compound 244, (2S,4S)-N-((4-carbamimidoylthiophen-2-yl)methyl)-1-((4-phenoxybenzoyl)glycyl)-4-(trifluoromethoxy)pyrrolidine-2-carboxamide] | < 0.1 µM
10 | C[C@@]12C[C@@H]1N(C(=O)CNC(=O)CCCOc1ccccc1)[C@H](C(=O)NCc1cc(C(=N)N)c(F)s1)C2 [Compound 245, (1S,3S,5S)-N-((4-carbamimidoyl-5-fluorothiophen-2-yl)methyl)-5-methyl-2-((4-phenoxybutanoyl)glycyl)-2-azabicyclo[3.1.0]hexane-3-carboxamide] | < 0.1 µM
11 | C[C@@H](NC(=O)[C@@H]1C[C@@H](c2ccccc2)CN1C(=O)CNC(=O)c1ccc(Oc2ccccc2)cc1)c1cc(C(=N)N)cs1 [Compound 246, (2S,4S)-N-((R)-1-(4-carbamimidoylthiophen-2-yl)ethyl)-1-((4-phenoxybenzoyl)glycyl)-4-phenylpyrrolidine-2-carboxamide] | < 0.1 µM
12 | C[C@@]12C[C@@H]1N(C(=O)CNC(=O)c1ccc(Oc3ccccc3)cc1)[C@H](C(=O)NCc1cc(C(=N)N)c(C(F)(F)F)s1)C2 [Compound 248, (1S,3S,5S)-N-((4-carbamimidoyl-5-(trifluoromethyl)thiophen-2-yl)methyl)-5-methyl-2-((4-phenoxybenzoyl)glycyl)-2-azabicyclo[3.1.0]hexane-3-carboxamide] | > 1 µM
13 | C[C@@]12C[C@@H]1N(C(=O)CNC1(c3ccc(Oc4ccccc4)cc3)COC1)[C@H](C(=O)NCc1cc(C(=N)N)cs1)C2 [Compound 249, (1S,3S,5S)-N-[(4-carbamimidoylthiophen-2-yl)methyl]-5-methyl-2-(2-{[3-(4-phenoxyphenyl)oxetan-3-yl]amino}acetyl)-2-azabicyclo[3.1.0]hexane-3-carboxamide] | < 0.1 µM
14 | C[C@@H](NC(=O)[C@@H]1C[C@@]23COCCC/C=C/CCCCCCCCC(=O)N[C@@H](CCOc4ccccc4)C(=O)NCC(=O)N1[C@H]2C3)c1cc(C(=N)N)cs1 [Compound 250, (1R,19S,25S,28S,E)-N-((R)-1-(4-carbamimidoylthiophen-2-yl)ethyl)-17,20,23-trioxo-19-(2-phenoxyethyl)-3-oxa-18,21,24-triazatricyclo[22.2.2.0^1,25]octacos-7-ene-28-carboxamide] | < 0.1 µM
15 | C[C@@]12C[C@@H]1N(C(=O)CNC(=O)CCCOc1ccccc1)[C@H](C(=O)NCc1cc(C(=N)N)c(C(F)(F)F)s1)C2 [Compound 251, (1S,3S,5S)-N-((4-carbamimidoyl-5-(trifluoromethyl)thiophen-2-yl)methyl)-5-methyl-2-((4-phenoxybutanoyl)glycyl)-2-azabicyclo[3.1.0]hexane-3-carboxamide] | > 1 µM
16 | COC[C@@H]1C[C@@H](C(=O)N[C@H](C)c2cc(C(=N)N)cs2)N(C(=O)CNC(=O)c2ccc(Oc3ccccc3)cc2)C1 [Compound 253, (2S,4R)-N-((R)-1-(4-carbamimidoylthiophen-2-yl)ethyl)-4-(methoxymethyl)-1-((4-phenoxybenzoyl)glycyl)pyrrolidine-2-carboxamide] | < 0.1 µM
17 | C[C@H](NC(=O)[C@@H]1C[C@]2(C)C[C@@H]2N1C(=O)CNC(=O)c1ccc(Oc2ccccc2)cc1)c1cc(-c2ncc[nH]2)cs1 [Compound 254, (1S,3S,5S)-N-((S)-1-(4-(1H-imidazol-2-yl)thiophen-2-yl)ethyl)-5-methyl-2-((4-phenoxybenzoyl)glycyl)-2-azabicyclo[3.1.0]hexane-3-carboxamide] | > 1 µM
18 | C[C@@H](NC(=O)[C@@H]1C[C@@]23COCCCCCCCCCCCCCC(=O)N[C@@H](CCOc4ccccc4)C(=O)NCC(=O)N1[C@H]2C3)c1cc(C(=N)N)cs1 [Compound 255, (1R,19S,25S,28S)-N-((R)-1-(4-carbamimidoylthiophen-2-yl)ethyl)-17,20,23-trioxo-19-(2-phenoxyethyl)-3-oxa-18,21,24-triazatricyclo[22.2.2.0^125]octacosane-28-carboxamide] | < 0.1 µM
19 | C[C@@]12C[C@@H]1N(C(=O)CNC(=O)c1ccc(Oc3ccccc3)cc1)[C@H](C(=O)NCc1cc3ccnc(N)c3s1)C2 [Compound 256, (1S,3S,5S)-N-((7-aminothieno[2,3-c]pyridin-2-yl)methyl)-5-methyl-2-((4-phenoxybenzoyl)glycyl)-2-azabicyclo[3.1.0]hexane-3-carboxamide] | > 1 µM
20 | C[C@@H](NC(=O)[C@@H]1C[C@@]23COCCCCCCCCCCCCc4cc(ccc4Oc4ccc(F)cc4)C(=O)NCC(=O)N1[C@H]2C3)c1cc(C(=N)N)cs1 [Compound 257, (1R,26S,29S)-N-[(1R)-1-(4-carbamimidoylthiophen-2-yl)ethyl]-17-(4-fluorophenoxy)-21,24-dioxo-3-oxa-22,25-diazatetracyclo[23.2.2.1^16,^20.0^1,^26]triaconta-16,18,20(30)-triene-29-carboxamide] | > 1 µM
21 | C[C@@]12C[C@@H]1N(C(=O)CNC(=O)c1ccc(Oc3ccccc3)cc1)[C@H](C(=O)NC1CCc3c(C(=N)N)csc3C1)C2 (stereo partly drawn) [Compound 258, (1S,3S,5S)-N-(3-carbamimidoyl-4,5,6,7-tetrahydrobenzo[b]thiophen-6-yl)-5-methyl-2-((4-phenoxybenzoyl)glycyl)-2-azabicyclo[3.1.0]hexane-3-carboxamide] | > 1 µM
22 | O=C(NCC(=O)N1CC2(C[C@H]1C(=O)NCc1cc(-c3ncc[nH]3)cs1)OCCO2)c1ccc(Oc2ccccc2)cc1 [Compound 259, (S)-N-((4-(1H-imidazol-2-yl)thiophen-2-yl)methyl)-7-((4-phenoxybenzoyl)glycyl)-1,4-dioxa-7-azaspiro[4.4]nonane-8-carboxamide] | < 0.1 µM
